In patent publication US8445501B2, “Substituted 7-carboxamido-pyrrolo[3,2-d]pyrimidines” (Takeda GmbH, priority 2008, dated 2013):
pIC50: −log10 of the molar value.

The molecules below were run against T1, human PDE5 (Homo sapiens, UniProt O76074) (assay: Inhibition of the type 5 phosphodiesterase (PDE5) activity, modified SPA test with platelet lysate). Details: PDE5 from human platelet lysate, 0.5 μM cGMP.
T1 construct: from tissue; host or cells: platelets from fresh blood of human donors (lysate, 10,000 g supernatant)
Assay type: biochemical
Summary of the method: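 SPA-based cGMP hydrolysis, [3H]cGMP tracer in 0.5 μM cGMP, by sonicated human platelet lysate; motapizone (1 μM) and a PDE2 inhibitor (10 nM) block other PDEs. Reaction 15 min at 37 °C after 5 min preincubation, quenched with beads containing IBMX. IC50 from concentration-effect curves.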

Compound | pIC50
COCC(=O)N1CCC(NC(=O)c2c[nH]c3c(-c4cc(OC)c(F)cc4OCC4CC4)ncnc23)CC1 [Example 98, 4-(2-Cyclopropylmethoxy-4-fluoro-5-methoxy-phenyl)-5H-pyrrolo[3,2-d]pyrimidine-7-carboxylic acid [1-(2-methoxy-ethanoyl)-piperidin-4-yl]-amide] | 9.66
COc1cc(-c2ncnc3c(C(=O)NC4CCN(C(C)=O)CC4)c[nH]c23)c(OCC2CC2)cc1F [Example 99, 4-(2-Cyclopropylmethoxy-4-fluoro-5-methoxy-phenyl)-5H-pyrrolo[3,2-d]pyrimidine-7-carboxylic acid (1-acetyl-piperidin-4-yl)-amide] | 9.75
COc1cc(-c2ncnc3c(C(=O)N[C@@H]4CCCN(C(C)=O)C4)c[nH]c23)c(OCC2CC2)cc1F [Example 100, 4-(2-Cyclopropylmethoxy-4-fluoro-5-methoxy-phenyl)-5H-pyrrolo[3,2-d]pyrimidine-7-carboxylic acid ((R)-1-acetyl-piperidin-3-yl)-amide] | 9.90
CCC(=O)N1CCC[C@@H](NC(=O)c2c[nH]c3c(-c4cc(OC)c(F)cc4OCC4CC4)ncnc23)C1 [Example 101, 4-(2-Cyclopropylmethoxy-4-fluoro-5-methoxy-phenyl)-5H-pyrrolo[3,2-d]pyrimidine-7-carboxylic acid ((R)-1-propionyl-piperidin-3-yl)-amide] | 9.79
COCC(=O)N1CCC[C@@H](NC(=O)c2c[nH]c3c(-c4cc(OC)c(F)cc4OCC4CC4)ncnc23)C1 [Example 102, 4-(2-Cyclopropylmethoxy-4-fluoro-5-methoxy-phenyl)-5H-pyrrolo[3,2-d]pyrimidine-7-carboxylic acid [(R)-1-(2-methoxy-acetyl)piperidin-3-yl]-amide] | 9.94
CCC(=O)N1CC[C@@H](NC(=O)c2c[nH]c3c(-c4cc(OC)c(F)cc4OCC4CC4)ncnc23)C1 [Example 104, 4-(2-Cyclopropylmethoxy-4-fluoro-5-methoxy-phenyl)-5H-pyrrolo[3,2-d]pyrimidine-7-carboxylic acid ((R)-1-propionyl-pyrrolidin-3-yl)-amide] | 9.63
COCC(=O)N1CC[C@@H](NC(=O)c2c[nH]c3c(-c4cc(OC)c(F)cc4OCC4CC4)ncnc23)C1 [Example 105, 4-(2-Cyclopropylmethoxy-4-fluoro-5-methoxy-phenyl)-5H-pyrrolo[3,2-d]pyrimidine-7-carboxylic acid [(R)-1-(2-methoxy-acetyl)-pyrrolidin-3-yl]amide] | 9.43
COc1cc(OCC2CC2)c(-c2ncnc3c(C(=O)N[C@H]4CC[C@H](NC(C)=O)CC4)c[nH]c23)cc1F [Example 106, trans-4-(2-Cyclopropylmethoxy-5-fluoro-4-methoxy-phenyl)-5H-pyrrolo[3,2-d]pyrimidine-7-carboxylic acid (4-acetylamino-cyclohexyl)-amide] | 9.05
COCC(=O)N[C@H]1CC[C@H](NC(=O)c2c[nH]c3c(-c4cc(F)c(OC)cc4OCC4CC4)ncnc23)CC1 [Example 107, trans-4-(2-Cyclopropylmethoxy-5-fluoro-4-methoxy-phenyl)-5H-pyrrolo[3,2-d]pyrimidine-7-carboxylic acid [4-(2-methoxy-acetylamino)-cyclohexyl]-amide] | 9.27
COc1cc(OCC2CC2)c(-c2ncnc3c(C(=O)NC4CCN(C(C)=O)CC4)c[nH]c23)cc1F [Example 108, 4-(2-Cyclopropylmethoxy-5-fluoro-4-methoxy-phenyl)-5H-pyrrolo[3,2-d]pyrimidine-7-carboxylic acid (1-acetyl-piperidin-4-yl)-amide] | 9.18
COCC(=O)N1CCC(NC(=O)c2c[nH]c3c(-c4cc(F)c(OC)cc4OCC4CC4)ncnc23)CC1 [Example 109, 4-(2-Cyclopropylmethoxy-5-fluoro-4-methoxy-phenyl)-5H-pyrrolo[3,2-d]pyrimidine-7-carboxylic acid [1-(2-methoxy-ethanoyl)-piperidin-4-yl]amide] | 9.16
CCC(=O)N1CCC(NC(=O)c2c[nH]c3c(-c4cc(F)c(OC)cc4OCC4CC4)ncnc23)CC1 [Example 110, 4-(2-Cyclopropylmethoxy-5-fluoro-4-methoxy-phenyl)-5H-pyrrolo[3,2-d]pyrimidine-7-carboxylic acid (1-propionyl-piperidin-4-yl)-amide] | 9.67
CCC(=O)N1CCC[C@@H](NC(=O)c2c[nH]c3c(-c4cc(F)c(OC)cc4OCC4CC4)ncnc23)C1 [Example 111, 4-(2-Cyclopropylmethoxy-5-fluoro-4-methoxy-phenyl)-5H-pyrrolo[3,2-d]pyrimidine-7-carboxylic acid ((R)-1-propionyl-piperidin-3-yl)-amide] | 9.98
COCC(=O)N1CCC[C@@H](NC(=O)c2c[nH]c3c(-c4cc(F)c(OC)cc4OCC4CC4)ncnc23)C1 [Example 112, 4-(2-Cyclopropylmethoxy-5-fluoro-4-methoxy-phenyl)-5H-pyrrolo[3,2-d]pyrimidine-7-carboxylic acid [(R)-1-(2-methoxy-ethanoyl)-piperidin-3-yl]amide] | 9.86
COc1cc(OCC2CC2)c(-c2ncnc3c(C(=O)N[C@@H]4CCCN(C(C)=O)C4)c[nH]c23)cc1F [Example 113, 4-(2-Cyclopropylmethoxy-5-fluoro-4-methoxy-phenyl)-5H-pyrrolo[3,2-d]pyrimidine-7-carboxylic acid ((R)-1-acetyl-piperidin-3-yl)-amide] | 9.70
CCC(=O)N1CCC[C@H](NC(=O)c2c[nH]c3c(-c4cc(F)c(OC)cc4OCC4CC4)ncnc23)C1 [Example 114, 4-(2-Cyclopropylmethoxy-5-fluoro-4-methoxy-phenyl)-5H-pyrrolo[3,2-d]pyrimidine-7-carboxylic acid ((S)-1-propionyl-piperidin-3-yl)-amide] | 8.65
COCC(=O)N1CCC[C@H](NC(=O)c2c[nH]c3c(-c4cc(F)c(OC)cc4OCC4CC4)ncnc23)C1 [Example 115, 4-(2-Cyclopropylmethoxy-5-fluoro-4-methoxy-phenyl)-5H-pyrrolo[3,2-d]pyrimidine-7-carboxylic acid [(S)-1-(2-methoxy-ethanoyl)-piperidin-3-yl]amide] | 8.42
COc1cc(OCC2CC2)c(-c2ncnc3c(C(=O)N[C@H]4CCCN(C(C)=O)C4)c[nH]c23)cc1F [Example 116, 4-(2-Cyclopropylmethoxy-5-fluoro-4-methoxy-phenyl)-5H-pyrrolo[3,2-d]pyrimidine-7-carboxylic acid ((S)-1-acetyl-piperidin-3-yl)-amide] | 8.51
COc1cc(OCC2CC2)c(-c2ncnc3c(C(=O)N[C@@H]4CCN(C(C)=O)C4)c[nH]c23)cc1F [Example 117, 4-(2-Cyclopropylmethoxy-5-fluoro-4-methoxy-phenyl)-5H-pyrrolo[3,2-d]pyrimidine-7-carboxylic acid ((R)-1-acetyl-pyrrolidin-3-yl)-amide] | 8.96
CCC(=O)N1CC[C@@H](NC(=O)c2c[nH]c3c(-c4cc(F)c(OC)cc4OCC4CC4)ncnc23)C1 [Example 118, 4-(2-Cyclopropylmethoxy-5-fluoro-4-methoxy-phenyl)-5H-pyrrolo[3,2-d]pyrimidine-7-carboxylic acid ((R)-1-propionyl-pyrrolidin-3-yl)-amide] | 9.30
COCC(=O)N1CC[C@@H](NC(=O)c2c[nH]c3c(-c4cc(F)c(OC)cc4OCC4CC4)ncnc23)C1 [Example 119, 4-(2-Cyclopropylmethoxy-5-fluoro-4-methoxy-phenyl)-5H-pyrrolo[3,2-d]pyrimidine-7-carboxylic acid [(R)-1-(2-methoxy-acetyl)-pyrrolidin-3-yl]amide] | 8.92
CC(=O)N[C@H]1CC[C@H](NC(=O)c2c[nH]c3c(-c4cc(C)ccc4OCC4CC4)ncnc23)CC1 [Example 120, trans-4-(2-Cyclopropylmethoxy-5-methyl-phenyl)-5H-pyrrolo[3,2-d]pyrimidine-7-carboxylic acid (4-acetylamino-cyclohexyl)-amide] | 8.92
COCC(=O)N[C@H]1CC[C@H](NC(=O)c2c[nH]c3c(-c4cc(C)ccc4OCC4CC4)ncnc23)CC1 [Example 121, trans-4-(2-Cyclopropylmethoxy-5-methyl-phenyl)-5H-pyrrolo[3,2-d]pyrimidine-7-carboxylic acid [4-(2-methoxy-acetylamino)-cyclohexyl]-amide] | 8.75
CCOC(=O)N[C@H]1CC[C@H](NC(=O)c2c[nH]c3c(-c4cc(C)ccc4OCC4CC4)ncnc23)CC1 [Example 122, trans-(4-{[4-(2-Cyclopropylmethoxy-5-methyl-phenyl)-5H-pyrrolo[3,2-d]pyrimidine-7-carbonyl]-amino}-cyclohexyl)-carbamic acid ethyl ester] | 8.86
CC(=O)N1CCC(NC(=O)c2c[nH]c3c(-c4cc(C)ccc4OCC4CC4)ncnc23)CC1 [Example 123, 4-(2-Cyclopropylmethoxy-5-methyl-phenyl)-5H-pyrrolo[3,2-d]pyrimidine-7-carboxylic acid (1-acetyl-piperidin-4-yl)-amide] | 8.74
COCC(=O)N1CCC(NC(=O)c2c[nH]c3c(-c4cc(C)ccc4OCC4CC4)ncnc23)CC1 [Example 124, 4-(2-Cyclopropylmethoxy-5-methyl-phenyl)-5H-pyrrolo[3,2-d]pyrimidine-7-carboxylic acid [1-(2-methoxy-acetyl)piperidin-4-yl]-amide] | 8.66
CCOC(=O)N1CCC(NC(=O)c2c[nH]c3c(-c4cc(C)ccc4OCC4CC4)ncnc23)CC1 [Example 125, 4-{[4-(2-Cyclopropylmethoxy-5-methyl-phenyl)-5H-pyrrolo[3,2-d]pyrimidine-7-carbonyl]-amino}-piperidine-1-carboxylic acid ethyl ester] | 8.93
CC(=O)N[C@H]1CC[C@H](NC(=O)c2c[nH]c3c(-c4c(OCC5CCC5)ccc5c4OCO5)ncnc23)CC1 [Example 126, trans-4-(5-Cyclobutylmethoxy-benzo[1,3]dioxol-4-yl)-5H-pyrrolo[3,2-d]pyrimidine-7-carboxylic acid (4-acetylamino-cyclohexyl)-amide] | 9.33
